Marks after values point to notes of the source that are not given here.
Columns and labels:
P. aeruginosa ATCC 10145 = experiment: CFU-assay, P. aeruginosa-cidal activity; type: cell-based, Pseudomonas aeruginosa
S. aureus ATCC 6538 = experiment: CFU-assay, S. aureus-cidal activity; type: cell-based, Staphylococcus aureus; conditions: pH 5.5, 0.25% glucose
Method: Thus, within the present invention, the antimicrobial activity is generally measured in nutrient deficient 10 mM sodium phosphate buffer pH 5.5, containing 0.25% glucose, using the CFU-assay according to Steinberg and Lehrer, 1997 (supra), unless otherwise indicated. The CFU-assay allows determination of the minimal bactericidal concentration (MBC, e.g., MBC90 and MBC100; i.e. the concentration of compound required to achieve a specified reduction in bacterial cell number (microbial death or killing)).
Various peptides corresponding to repeat domains of hornerin (HR 1-11: HRNR 2606-2628; HR 1-17: HRNR 2656-2684 and HR 1-18: HRNR 2656-2677) were tested for P. aeruginosa ATCC 10145-cidal activity in 10 mM Na-phosphate buffer pH 5.5, containing 0.25% glucose by counting the numbers of colonies of surviving bacteria at serial, twofold dilutions from 300 μg/ml down to 19 ng/ml of each peptide (CFU-assay; Steinberg and Lehrer, 1997, Methods Mol. Biol. 78, 169-186).
Staphylococcus aureus is a major skin pathogen, which causes skin infections, in particular in atopic dermatitis. The sensitivity of S. aureus ATCC 6538 towards several CIDAMPs was assessed using the CFU-assay as above (see Example 1). HR 1-18, which lacks S. aureus.-bactericidal activity, is converted in a S. aureus-cidal peptide, when all His are replaced by Arg (HR 1-18 4H-4R; see Table 13 and FIG. 9). […] HR 1-18 4H-4R is rich in Ser and Arg and contains a single Leu residue. When this single Leu was replaced by Gly in S. aureus-cidal HR 1-18 4H-4R (forming HR 1-18 4H-4R/L-G), S. aureus-cidal activity was abolished at both pH 7.0 and pH 5.5 (see Table 13 and FIG. 9).

| Molecule | MBC100 (P. aeruginosa ATCC 10145; pH 5.5, 1% TSB) | MBC90 (P. aeruginosa ATCC 10145; pH 5.5, 0.25% glucose) | MBC100 (P. aeruginosa ATCC 10145; pH 5.5, 0.25% glucose) | other results |
| --- | --- | --- | --- | --- |
| GRHGSGSGQSSSYGPYRSGSGWSSSRGPY (Peptide derived from human hornerin (HRNR 1013-1041)) [HRNR1013-1041] | >300 µg/mL |  |  |  |
| GOOGGOGGOGOGO [Orn-GR13] |  | 0.034 µM | 1.1 µM |  |
| HTHSGHTHSQARSQHGESESTVHKR (Peptide derived from human filaggrin-2 (FLG-2 1894-1918)) [FLG-21894-1918] |  | 0.038 µg/mL | 0.3 µg/mL |  |
| HGSGSGQSSRGERHGSSSGSSSH (Modified peptide derived from human hornerin (HR 1-11 R1-G R2609G)) | >300* μg/ml |  |  | MBC90 (P. aeruginosa ATCC 10145; pH 5.5, 1% TSB): >300* μg/ml |
| GRGGSGLGGSSSGGQGGSGSGRSSSRGPY (Modified peptide derived from human hornerin (HR 1-17 4H-4G all H vs G)) |  |  |  | MBC90 (P. aeruginosa ATCC 10145; pH 5.0, 0.25% glucose): 75 µg/mL; MBC100 (P. aeruginosa ATCC 10145; pH 5.0, 0.25% glucose): >300 µg/mL |
| HGSGLGHSSSHGQHGSGSGR (Peptide derived from human hornerin (HR 1-8 HRNR2658-2677)) | >300 µg/mL | 4.7 µg/mL | >300 µg/mL |  |
| HSQRGSGSRQSPSYGRH (Modified peptide derived from human hornerin (HR 2-16 HRNR1128-1144)) |  |  | 37.5 (only at μg/ml |  |
| HGSRSGQSSRGERGGSSSGSSSH (Modified peptide derived from human hornerin (HR 1-11 H2-G H2619G)) | >300 µg/mL |  |  | MBC90 (P. aeruginosa ATCC 10145; pH 5.5, 1% TSB): 75 µg/mL |
| GRHGSGSGQSSSYSPYGSGSGWSSSRGPY (Peptide derived from human hornerin (HRNR 2422-2450)) [HRNR2422-2450] | >300 µg/mL |  |  |  |
| LRHGSGLGHSSSHGQHGSGSGR (Modified peptide derived from human hornerin (HR 1-18 G2656L)) |  |  |  | MBC90 (P. aeruginosa ATCC 10145; pH 5.0, 0.25% glucose): 4.7 µg/mL; MBC100 (P. aeruginosa ATCC 10145; pH 5.0, 0.25% glucose): >300 µg/mL; MBC90 (S. aureus ATCC 6538): 300 µg/mL; MBC100 (S. aureus ATCC 6538): >300 µg/mL |
| GRHGSGSGHSSSHGQHGSGSGR (Peptide derived from human hornerin (HRNR 2186-2207)) [HRNR2186-2207] |  |  | 4.7-9.37* μg/ml |  |
| HGSRSGQSSRGERHGSSSGSSSG (Modified peptide derived from human hornerin (HR 1-11 H3-G H2628G)) | >300 µg/mL |  |  | MBC90 (P. aeruginosa ATCC 10145; pH 5.5, 1% TSB): 18.75 µg/mL |
| RQSPSYGRHGSGSGR (Peptide derived from human hornerin (HR 2-14 HRNR 1136-1150)) [HR 2-14 HRNR1136-1150] | >300 µg/mL |  |  | MBC90 (P. aeruginosa ATCC 10145; pH 5.5, 1% TSB): 300 µg/mL |
| GHGRQGSGSRQSPSHVRHGSGSGHSSSHGQHGSGSSYSYSRGHYESGSGQTSGFGQHESGSGQSSGY (Peptide derived from human hornerin (HRNR 295-361)) GHGRQGSGSRQSPSHVRHGSGSGHSSSHGQHGSGSSYSYSRGHYESGSGQTSGFGQHESGSGQSSGY |  | 0.15 µg/mL | 0.59 µg/mL |  |
| SQHKSSSGQSSGYSQHGSGSGHSSGYGQHGSRSGQSSRGDRHRSSSGSSSSYGQHGSGSRQSL (Peptide derived from human hornerin (HRNR 232-294)) SQHKSSSGQSSGYSQHGSGSGHSSGYGQHGSRSGQSSRGDRHRSSSGSSSSYGQHGSGSRQSL |  | 0.30 µg/mL | 2.35 µg/mL |  |
| LGHGQHGSGSGQSPSPSRGRHGSGSGQSSSYGPYRSGSGWSSSRGPYESGSGHSSGLGHRER (Peptide derived from human hornerin (HRNR 995-1056)) LGHGQHGSGSGQSPSPSRGRHGSGSGQSSSYGPYRSGSGWSSSRGPYESGSGHSSGLGHRER |  | 0.3 µg/mL | 2.35 µg/mL |  |
| GHKSSSGQSSGYTQHGSGSGHSSSYEQHGSRSGQSSRSEQHGSSSGSSSSYGQHGSGSRQSL (Peptide derived from human hornerin (HRNR 933-994)) GHKSSSGQSSGYTQHGSGSGHSSSYEQHGSRSGQSSRSEQHGSSSGSSSSYGQHGSGSRQSL |  | 0.3 µg/mL | 2.35 µg/mL |  |
